Experimental findings from a melting point compilation (Tetko et al.; mined from patent text by program, amines drawn as free bases though some values may be those of a salt) are described below.

What is called melting point is the temperature, or range, at which the solid turns liquid.

Where only a bound is given, the exact number is not on record here.

`Cc1cc(-c2cc(C(F)(F)F)nc(-c3cccc(-c4ccc(S(N)(=O)=O)s4)c3)n2)ccc1C(F)(F)F` showed a melting point of 216 °C.

Turning to `COc1cccc(-c2nn(Cc3ccccc3)c(N)c2C#N)c1`, the melting point lay in the range of 147 to 149 °C.

In turn, `Cn1cc(-c2cc3nccnc3[nH]2)cn1` displayed a melting point of 232 to 234 °C.

`C[C@@H]([C@@H](O)c1ccc(OCc2ccccc2)cc1)N1C2CCC1CC(=Cc1ccccc1)C2` (relative stereo) came in with a melting point of 145 to 148 °C.

On to `O=C(O)Cn1c(=O)c(=O)[nH]c2cc([N+](=O)[O-])c(-n3ccc(CN4CCN(Cc5ccccc5)CC4)c3)cc21`, for which the melting point is above 230 °C.

On to `COc1cccc(-c2cccc3c2CCn2cc(-c4ccccc4)nc2C3OC2CCN(C)CC2)c1` (stereo not drawn), for which the melting point came to 93 °C.

Turning to `CCOC(=O)c1c(-c2ccccc2)c2cc(Cl)ccc2n1CC#N`, the melting point lay within 119 to 120 °C.

`FC(F)(F)c1ccccc1P(=S)(S)c1ccccc1C(F)(F)F`: the melting point lay within 93 to 94 °C.

In turn, `COc1ccc(C(=O)Nc2ccccc2)cc1NCc1ccc(C(=O)O)cc1` registered a melting point above 240 °C.

For the molecule `CCOC(=O)c1coc2c(OC)ccc(C(=O)Cc3c(Cl)cncc3Cl)c12`, the melting point fell in the range of 142 to 143 °C.

Consider `O=C(O)c1cnn2c(C(F)(F)F)cc(-c3cccc(C(F)(F)F)c3)nc12`, for which the melting point was determined as 212 °C.

On to `CC1=C(C(=O)Nc2ccccc2)OCCO1`, for which the melting point fell in the range of 85 to 87 °C.

Molecule `CC(C)(NC(=O)CCNC(=O)OCc1ccccc1)c1ccccc1` came in with a melting point of 96 to 97 °C.

Turning to `CC(C)c1ccc(S(=O)(=O)n2c(Cc3ccc(C(=O)O)cc3)cc3cc(Cl)ccc32)cc1`, the melting point worked out at 192 °C.

The molecule `CC(C)c1ccc(Oc2ccc(C(=O)c3ccc(Oc4ccc(C(C)C)cc4)cc3)cc2)cc1` returned a melting point of 104 to 105 °C.

As for `CC(=O)NCC1CN(c2ccc(N3CCN(c4nncs4)CC3)c(F)c2)C(=O)O1` (stereo not drawn), the melting point is 206 to 208 °C.

In turn, `CC(C)(C)c1cc(SCCOC(=O)c2cc(C(C)(C)C)c(OC(=O)c3cc(C(C)(C)C)c(O)c(C(C)(C)C)c3)c(C(C)(C)C)c2)cc(C(C)(C)C)c1O` yielded a melting point of 168 to 170 °C.

`Nc1ccc(NC(=O)N(C[C@H]2CC[C@H](CN(C(=O)Nc3ccc(N)cc3)C3CCCCC3)CC2)C2CCCCC2)cc1` had a melting point of 185 to 188 °C.

Molecule `COc1ccc(Cl)c(Oc2c(Cl)ncnc2NS(=O)(=O)c2ccc(C(C)C)cn2)c1` showed a melting point of 174 to 175 °C.

As to `COc1ccc(C2CNCc3c(OC)cccc32)cc1OC` (stereo not drawn), the melting point was 106 to 112 °C.

`N[C@@H]1Cc2c(Br)ccc3c2[C@@H](C1)CN3C(=O)c1ccccc1` displayed a melting point of 169 to 173 °C.

In the case of `O=C(O)c1ccc(C=C(C(=O)C2CC2)C(=O)C2CC2)cc1`, the melting point lay within 175 to 178 °C.

For the molecule `N#Cc1ccc2nc(C(F)(F)F)[nH]c2c1`, the melting point was in the range of 194 to 196 °C.

As for `[N-]=[N+]=Nc1nc(N=[N+]=[N-])nc(-c2ccccc2)n1`, the melting point fell in the range of 130 to 132 °C.

Molecule `N#Cc1cc(-c2ccoc2)c2ccc(COc3cc(F)cc(-c4ccccc4)c3)cc2n1` had a melting point of 150 to 152 °C.

`CC(CC(=O)NC(=O)OC(C)(C)C)Nc1ccc(Cl)cc1` (stereo not drawn) registered a melting point of 114 to 115 °C.

`C1=C(c2cc3ccccc3[nH]2)CCN(CCC2Cc3ccccc3C2)C1` registered a melting point of 175 to 176 °C.

In the case of `CC(=O)SCc1nccc(SCCCSc2ccc3ncc([N+](=O)[O-])n3n2)c1C`, the melting point lay in the range of 138 to 140 °C.

Regarding `COC(=O)Cc1c(C(=O)OC)ccn1CCO`, the melting point lay in the range of 52 to 54 °C.

In the case of `C[C@H]1c2ccccc2N(C(=O)CCl)[C@H]1C` (relative stereo), the melting point was 83 to 84 °C.

Molecule `COCCOc1cc(-c2ccccn2)nc(-c2ccccn2)c1` yielded a melting point of 105 to 106 °C.

On to `CSc1nc2ccccc2n1C1CCN(CCCC(=O)c2ccc(F)cc2)CC1`, for which the melting point fell in the range of 98 to 98.5 °C.

As for `COc1ccc(-c2cnc(NS(=O)(=O)c3ccc(C)cc3)nc2)cc1`, the melting point lay in the range of 220 to 223 °C.

With `CC1OC(COc2ccc(Cl)cc2)OC1=O` (stereo not drawn), the melting point was 53 to 55 °C.

In turn, `C=C1CSC2C(NC(=O)OC(C)(C)C)C(=O)N2C1C(=O)OC(c1ccccc1)c1ccccc1` (stereo not drawn) had a melting point of 135 to 137 °C.

`CCCCCCCCCCCCn1nnc(CCC(=O)Nc2ccc(F)cc2F)n1` showed a melting point of 86 to 87 °C.

Turning to `CCOc1nc(C(F)(F)F)cc(=O)n1-c1cc(C(=O)OC)c(Cl)cc1F`, the melting point is 96 to 98 °C.

`Cn1nc(-c2cc(C=NOCC(=O)O)c(Cl)cc2F)c(Cl)c1C(F)(F)F` registered a melting point of 170 °C.

`O=C(CO)NCCCCCCCCCCCCNC(=O)CO` gave a melting point of 94 to 97 °C.

In turn, `CC(O)c1c(-c2ccc(O)cc2)oc2ccc(O)cc12` (stereo not drawn) returned a melting point of 177 to 182 °C.

For the molecule `COc1cc(C)nc2c(O)cccc12`, the melting point was in the range of 110 to 112 °C.

In turn, `CCc1ccc(OC(C)=O)c(C2(OC(C)=O)C(=O)c3ccccc3C2=O)c1` returned a melting point of 153 to 154 °C.

In turn, `CC1=C(c2ccc(OCC(C)NCC(O)c3cccc(Cl)c3)cc2)CCC(=O)N1` (stereo not drawn) displayed a melting point of 99 to 104 °C.

For the molecule `CCc1cccc(CC)c1NCC(=O)NC(=S)NNC`, the melting point came out at 166 °C.

Regarding `CS(=O)(=O)CS(=O)(=O)OCCCl`, the melting point lay within 60 to 62 °C.

For the molecule `CCOc1cccc(-c2n[nH]c(-c3ccccc3C)n2)c1`, the melting point was 84 to 86 °C.

The molecule `C#CC(C)N1C(=O)c2ccccc2C1=O` (stereo not drawn) returned a melting point of 104 to 106 °C.

In turn, `C=Cc1ccc2sc(S(N)(=O)=O)cc2c1` showed a melting point of 168 to 170 °C.

For the molecule `CC(=O)c1cc(Cl)sc1SCc1ccccc1`, the melting point was in the range of 86 to 88 °C.

Turning to `O=C1C2CCCC2=Nc2ccccc2N1Cc1ccccc1F` (stereo not drawn), the melting point was in the range of 135 to 137 °C.

`CC1(C)CCC(C)(C)c2cc3c(cc21)CCc1nc(-c2ccc(C(=O)O)cc2)sc1-3` registered a melting point of 275 to 278 °C.

The molecule `O=C1CN(c2ccccc2)C(=O)N1C(=O)c1ccc(Cl)cc1` yielded a melting point of 182 to 184 °C.

As to `Cc1cc(NCCO)c2[nH]nc(C)c2n1`, the melting point is 225 to 230 °C.

The molecule `CC(C)(C)OC(=O)N1CCC(C(=O)c2nc3ccccc3n2Cc2ccccc2)CC1` returned a melting point of 122 °C.

Turning to `CCOC(=O)c1ccc(C(OC(c2ccc(C(=O)OCC)cc2)c2ccc3c(c2)C(C)(C)CCC3(C)C)c2ccc3c(c2)C(C)(C)CCC3(C)C)cc1` (stereo not drawn), the melting point was in the range of 109 to 111 °C.

In turn, `Cc1ncn(Cc2ccc(NC(=O)Nc3ccc(Oc4cc(Cl)ncn4)cc3)cc2C(F)(F)F)c1C` returned a melting point of 195 to 196 °C.

The molecule `COc1ccccc1Nc1nnc(Cc2ccncc2)c2ccccc12` displayed a melting point of 190 to 191 °C.

The molecule `O=c1ncc(Cl)cn1Cn1cc(Cl)cnc1=O` returned a melting point of 260 °C.

Turning to `CS(=O)(=O)N[C@@H]1CN2C(=O)N(c3cc(Cl)nc(Cl)c3)C(=O)[C@@]2(Cc2ccc(OC(F)(F)F)cc2)C1`, the melting point was determined as 207 °C.

Molecule `CCCCCCCCCCCCOC(=O)NCCC(=O)NC(Cc1c[nH]cn1)C(=O)O` (stereo not drawn) displayed a melting point of 168 to 172 °C.

For `Cc1ccc2nc(-c3ccc(Cl)cc3)c(CN3CCCC3=O)n2c1`, the melting point lay within 186 to 188 °C.

Take `CCC(=NOCC=Cc1ccc(Br)cc1)C1=C(O)CC(C2CCCSC2)CC1=O` (stereo not drawn): the melting point lay within 97 to 99 °C.

Turning to `Cc1ccccc1C=C1CCn2c1nc1ccc(C(=O)O)cc1c2=O`, the melting point lay in the range of 285 to 287 °C.

In the case of `Cn1ncnc1COc1nn2c(-c3ccccc3F)nncc2c1-c1cccc(F)c1F`, the melting point stood at 176 °C.

Take `Cc1c(C)c2c(c(C)c1N)OC(C)(C)C2c1ccc(C(C)C)cc1` (stereo not drawn): the melting point lay in the range of 120 to 121 °C.

On to `C=CCCCCOc1ccc(OCCCCC=C)cc1`, for which the melting point fell in the range of 29 to 30 °C.

`Cc1cc(C(C)(C)C)cc(C)c1S(=O)(=O)C[N+](=O)[O-]` displayed a melting point of 90 to 92 °C.

In turn, `CC(C)c1nn(-c2ccc(C(F)(F)F)cn2)cc1CCCCOc1ccccc1CC(=O)O` came in with a melting point of 125 to 126 °C.

For `C=C(COc1cc(Cl)ccc1C=NNP(=O)(OCC)OCC)C(C)C`, the melting point lay in the range of 103 to 106 °C.

The molecule `CCCc1ccccc1OCCCOc1ccc2c(=O)cc(C(=O)OCC)oc2c1` came in with a melting point of 73 to 75 °C.

`CC1=NN(c2ccc(CO)cc2)C(=O)C1` had a melting point of 139 to 140 °C.

As to `Cc1cccc(-c2n[nH]cc2-c2ccc(F)c(-c3ccc(OCCO)cn3)c2)n1`, the melting point is 148 to 151 °C.

`Cc1cc2c(cc1C)n(C1CCNCC1)c(=O)n2C`: the melting point was in the range of 171 to 172 °C.

In turn, `CC1(C)C(=O)N(c2ccc(C#N)c(C(F)(F)F)c2)C(=S)N1CCO` gave a melting point of 130 °C.

Consider `Cc1cc(=O)n(-c2cc3[nH]c(=O)sc3cc2F)c(=O)n1C`, for which the melting point was above 250 °C.

For `CC(=O)N1CCn2nc(-c3ccc(F)cc3)c(-c3ccncc3)c2N1`, the melting point lay within 216 to 218 °C.

Molecule `COc1ccc(C)cc1NC(=O)Nc1ccc(N2CCN(C(=O)C3CC4CCC3C4)CC2)cc1` (stereo not drawn) had a melting point of 126 to 128 °C.

In the case of `CCOC(=O)c1csc(NCc2ccccc2)n1`, the melting point was 132 to 136 °C.

Regarding `c1cc(-c2ccc3c(c2)OCO3)cc(Nc2ccc3c(c2)OCCO3)n1`, the melting point lay in the range of 116 to 118 °C.

Take `CCCCn1c(COCC)nc2c(N)nc3ccccc3c21`: the melting point was 139 to 140 °C.

In turn, `CCCCOc1ccc2cc(Br)ccc2c1` registered a melting point of 48 to 50 °C.

For `O=C(O)C=CC(=O)c1cc(Cl)c(Cl)cc1Cl`, the melting point is 177 to 181 °C.

`COC(=O)[C@H](Cc1ccc(OCCCN(C)Cc2ccccc2)cc1)NC(=O)[C@@H]1CCCN1S(=O)(=O)c1ccc(C)cc1` registered a melting point of 60 to 70 °C.

Turning to `CS(=O)(=O)n1c2cc(O)c(O)cc2c2cc(O)c(O)cc21`, the melting point fell in the range of 278 to 280 °C.

In the case of `Cc1ccnc(C2C(=O)CC(C(C)C)CC2=O)c1` (stereo not drawn), the melting point fell in the range of 104 to 106 °C.

With `CCOS(=O)(=O)c1nc2nc(C)cc(Cl)n2n1`, the melting point lay in the range of 166 to 169 °C.

In the case of `CSc1ccc(-c2nc(SC)c(C#N)c(=O)n2-c2ccc(Br)cc2)cc1`, the melting point is 213 to 215 °C.

For the molecule `COC(=O)NNc1cc(C)c(Cl)c2c1OC(C)C2` (stereo not drawn), the melting point lay in the range of 157 to 160 °C.
